According to patent publication US10792335B2, “Rapid-acting insulin composition comprising a substituted citrate” (ADOCIA, priority 2015, dated 2020):
Peptide text beside a SMILES is read from it. * marks the point of attachment. Cbz = O=C(OCc1ccccc1)*

Key:
[1] = molecular target: T1, hexameric R6 form of human insulin (Homo sapiens, UniProt P01308); assay: Association state of human insulin evaluated by circular dichroism (CD signal at 240 nm); assay type: physicochemical; conditions: human insulin 100 IU/mL (Humulin R), pH 7.4; additive alone (EDTA 300 μM or 6 mM; substituted citrate 7.3 or 14.6 mg/mL)
T1 construct: The human insulin has a strong signal at 240 nm, characteristic of the hexameric R6 form
T1 sequence (P01308 25-54 limits assumed): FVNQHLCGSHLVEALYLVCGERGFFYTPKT
T1 sequence (P01308 90-110 limits assumed): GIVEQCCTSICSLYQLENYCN
Experimental: Circular dichroism makes it possible to study the secondary and quaternary structures of insulin. The monomers of insulin self-organize to form dimers and hexamers. […] There are two hexameric forms, the R6 form and the T6 form. […] The loss of the signal at 240 nm is connected with a destabilization of the hexamer and the conversion from R6 to T6.
For a final volume of 100 mL of formulation, with a concentration of substituted citrate at 7.3 mg/mL and a concentration of 9.3 mM of citrate, the different reagents are added in quantities specified below and in the following order:
For a final volume of 100 mL of formulation, with a concentration of substituted citrate at 7.3 mg/mL or 14.6 mg/mL, the different reagents are added in the quantities specified below and in the following order:
For a final volume of 100 mL of formulation, with a concentration of 300 μM or 6 mM of EDTA, the different reagents are added in the quantities specified below and in the following order:
(§1) Two measurement series were carried out.

[2] = molecular target: T2, hexameric R6 form of insulin lispro (Homo sapiens, UniProt P01308, K53P/P52K); assay: Association state of the insulin lispro evaluated by circular dichroism (CD signal at 240 nm); assay type: physicochemical; conditions: insulin lispro 100 IU/mL (Humalog), pH 7.4; additive alone (EDTA 300 μM; substituted citrate 7.3 or 14.6 mg/mL)
T2 construct: The insulin lispro has a strong signal at 240 nm characteristic of the hexameric R6 form; purchased Lilly
T2 sequence (P01308 25-54 P52K/K53P limits assumed): as the sequence (P01308 25-54 limits assumed) above, with P28K, K29P counted along it
Experimental: Circular dichroism makes it possible to study the secondary and quaternary structure of the insulin. The monomers of insulin self-organize to form dimers and hexamers. […] There are two hexameric forms, R6 form and T6 form. […] The loss of the signal at 240 nm is connected with a destabilization of the hexamer and the conversion from R6 to T6.
For a final volume of 100 mL of formulation, with a concentration of substituted citrate at 7.3 mg/mL and a concentration of 9.3 mM of citrate, the different reagents are added in the quantities specified below and in the following order:
For a final volume of 100 mL of formulation, with a concentration of substituted citrate at 7.3 mg/mL, the different reagents are added in the quantities specified below and in the following order:
For a final volume of 100 mL of formulation, with a concentration of 300 μM of EDTA, the different reagents are added in the quantities specified below and in the following order:
as §1
Circular dichroism makes it possible to study the secondary and quaternary structures of insulin. The monomers of insulin self-organize to form dimers and hexamers. […]
For a final volume of 100 mL of formulation, with a concentration of substituted citrate at 7.3 mg/mL or 14.6 mg/mL, the different reagents are added in the quantities specified below and in the following order: […]

[3] = Solubility in a buffer solution at 50 mM Tris/HCl pH 7.4 (visual inspection); assay type: physicochemical
Experimental: The solubility of the substituted citrates (A1, A2, A3 and A4) was measured in a buffer solution.
In a buffer solution at 50 mM of Tris/HCl, pH 7.4 (1 mL), the substituted citrate in powder form (20 mg) is introduced. The tubes are stirred (rolling shaker) for 30 minutes at ambient temperature, then inspected visually. The pH is adjusted to 7.4±0.4.
The solubility of the compounds of the prior art (CE1 and CE2) was measured.
4 mL of a buffer solution at 50 mM of Tris/HCl at pH 7.4 were introduced into a glass tube, at ambient temperature. The compounds in powder form were added successively in the amount of 8 mg per addition. After each addition of compound, the tubes were stirred (rolling shaker) for 30 minutes at ambient temperature, then inspected visually. The pH is adjusted to 7.4±0.4.
The concentrations at which insoluble matter was observed are defined as being greater than the limit of solubility of the compound.

[4] = Solubility in the presence of insulin lispro 100 IU/mL (commercial Humalog, visual inspection); assay type: physicochemical; conditions: commercial insulin lispro solution (Humalog) 100 IU/mL, aqueous with cosolvent or surfactant or cyclodextrin, thermodynamic from solid, pH 7.4±0.4, ambient temperature, 30 minutes stirring, read-out: Solubility (limit of solubility)
Experimental: The solubility of the substituted citrates (A1, A2, A3 and A4) is measured in the presence of insulin lispro 100 U/mL. In a commercial solution of insulin lispro (Humalog®) (1 mL), the substituted citrate in powder form (20 mg) is introduced. The tube was stirred (rolling shaker) for 30 minutes at ambient temperature, then inspected visually. The pH is adjusted to 7.4±0.4.
The solubility of the compounds of the prior art was also measured in the presence of insulin lispro 100 U/mL. 1 mL of a commercial solution of Humalog was introduced into a glass tube, at ambient temperature. The compounds in powder form were added successively in the amount of 2 mg per addition. After each addition of compound, the tubes were stirred (rolling shaker) for 30 minutes at ambient temperature, then inspected visually. The pH is adjusted to 7.4±0.4.
The concentrations at which insoluble matter was observed are defined as being greater than the limit of solubility of the compound in the presence of insulin lispro 100 IU/mL.

[5] = injected by the subcutaneous route, diabetic patients; cited from earlier work
[6] = 50 mM Tris/HCl buffer, aqueous buffer, thermodynamic from solid, buffer solution 50 mM Tris/HCl, pH 7.4, ambient temperature, 30 minutes stirring, read-out: Solubility (limit of solubility)
[7] = pH 7.4, thermodynamic from solid, medium not named at this place, sums up Tables 3 and 4 (Tris/HCl buffer and Humalog), read-out: limit of solubility (summary statement)

Molecule	impact on the CD signal at 240 nm / R6 form of the human insulin hexamer [1]	impact on the CD signal at 240 nm / R6 form of the insulin lispro hexamer [2]	solubility at 30 min [3, 6] [µg/mL]	solubility at 30 min [3, 7] [µg/mL]	solubility at 30 min [4] [µg/mL]	time after which a hypoglycemic effect is produced [5] [min]
O=C(O)CN(CCN(CC(=O)O)CC(=O)O)CC(=O)O [EDTA]	completely destructures the R6 form	completely destructures the R6 form				
O=C(N[C@@H](Cc1ccccc1)C(=O)N[C@@H](Cc1ccccc1)C(=O)O)OCc1ccccc1 [CE1, N-Carbobenzoxy-L- phenylalanyl-L- phenylalanine] (Cbz-Phe-Phe-OH)			< 2000	< 2000	< 2000	
O=C(N[C@@H](Cc1ccccc1)C(=O)O)c1ccccc1 [CE2, Benzoyl-L- phenylalanine]			< 2000	< 2000	< 2000	
human insulin: human insulin produced by genetic engineering, injected subcutaneously						60
